Legend:
Format in all cases: cell-based, murine
[1] = molecular target: Ba/F3 EGFR L858R/T790M/C797S mutants (Homo sapiens, UniProt P00533, T790M/C797S/L858R, cells depend on it); assay: CellTiter-Glo cell viability, Ba/F3 EGFR L858R/T790M/C797S cells; settings: 72 hours, read-out: Ba/F3 EGFR mutant cell (IC50, nM) L/T/C
Protocol: (§1) In order to evaluate an inhibitory ability on wild-type Ba/F3 EGFR and Ba/F3 EGFR mutations in Ba/F3 cell lines by the compounds of Formula 1, the experiment was carried out as described below.
(§2) The measurement of activities on Ba/F3 cells harboring wild-type EGFR and EGFR mutants by the compounds of the present invention were determined utilizing the CELLTITER-GLO™ system from Promega, as follows. The CELLTITER-GLO™ assay is a method for measuring the ATP present in cells to determine the cell viability. Ba/F3 EGFR wild-type and Ba/F3 EGFR L858R/C797S (L/C), Ba/F3 EGFR L858R/T790M/C797S (L/T/C), Ba/F3 EGFR Del19/T790M (D/T), Ba/F3 EGFR Del19/C797S (D/C), Ba/F3 EGFR Del19/T790M/C797S (D/T/C) mutant cell lines were maintained in RPMI1640, containing […], 1% penicillin-streptomycin, […] puromycin. Cells were grown in a humidified incubator at 37° C. with […].
(§3) The analysis of an EGFR inhibitory activity by the compounds was carried out in accordance with the analysis reaction recipe below.
(§4) 2500 cells/90 μL were seeded in 96 well cell culture plate, and after 24 hours, treated with the compounds represented by Formula 1 in concentrations of 0, 0.3, 0.9, 2.7, 8.2, 24.7, 74.1, 222.2, 666.7, 2000 (nM). After the reaction of 72 hours, the plate was incubated for 30 minutes at ambient temperature, and then, was further treated with 100 μL of the CELLTITER-GLO™ reagent and was shaken for 10 minutes at ambient temperature. Finally, measurement of the luminescence values were obtained using the SPECTRAMAX™ iD3 (Molecular Devices), and the IC50 values of the compound were analyzed using the GraphPad Prism program (version 9.0.2, GraphPad Software, Inc.).

[2] = molecular target: Ba/F3 EGFR Del19/T790M mutants (Homo sapiens, UniProt P00533, T790M, cells depend on it, form not given); assay: CellTiter-Glo cell viability, Ba/F3 EGFR Del19/T790M cells; settings: 72 hours, read-out: Ba/F3 EGFR mutant cell (IC50, nM) D/T
Protocol: as §1, §2, §3, §4

[3] = molecular target: Ba/F3 EGFR Del19/T790M/C797S mutants (Homo sapiens, UniProt P00533, T790M/C797S, cells depend on it, form not given); assay: CellTiter-Glo cell viability, Ba/F3 EGFR Del19/T790M/C797S cells; settings: 72 hours, read-out: Ba/F3 EGFR mutant cell (IC50, nM) D/T/C
Protocol: as §1, §2, §3, §4

[4] = molecular target: Ba/F3 EGFR Del19/C797S mutants (Homo sapiens, UniProt P00533, C797S, cells depend on it, form not given); assay: CellTiter-Glo cell viability, Ba/F3 EGFR Del19/C797S cells; settings: 72 hours, read-out: Ba/F3 EGFR mutant cell (IC50, nM) D/C
Protocol: as §1, §2, §3, §4

[5] = molecular target: Ba/F3 EGFR L858R/C797S mutants (Homo sapiens, UniProt P00533, C797S/L858R, cells depend on it); assay: CellTiter-Glo cell viability, Ba/F3 EGFR L858R/C797S cells; settings: 72 hours, read-out: Ba/F3 EGFR mutant cell (IC50, nM) L/C
Protocol: as §1, §2, §3, §4

[6] = molecular target: Ba/F3 EGFR Wild-type (Homo sapiens, UniProt P00533); assay: CellTiter-Glo cell viability, Ba/F3 EGFR wild-type cells; settings: 72 hours, read-out: Ba/F3 EGFR mutant cell (IC50, nM) WT
Protocol: as §1, §2, §3, §4

Ba/F3 EGFR Del19/T790M mutants, sequence (P00533 with tags, fused parts or gaps DEL746-750/T790M, form open): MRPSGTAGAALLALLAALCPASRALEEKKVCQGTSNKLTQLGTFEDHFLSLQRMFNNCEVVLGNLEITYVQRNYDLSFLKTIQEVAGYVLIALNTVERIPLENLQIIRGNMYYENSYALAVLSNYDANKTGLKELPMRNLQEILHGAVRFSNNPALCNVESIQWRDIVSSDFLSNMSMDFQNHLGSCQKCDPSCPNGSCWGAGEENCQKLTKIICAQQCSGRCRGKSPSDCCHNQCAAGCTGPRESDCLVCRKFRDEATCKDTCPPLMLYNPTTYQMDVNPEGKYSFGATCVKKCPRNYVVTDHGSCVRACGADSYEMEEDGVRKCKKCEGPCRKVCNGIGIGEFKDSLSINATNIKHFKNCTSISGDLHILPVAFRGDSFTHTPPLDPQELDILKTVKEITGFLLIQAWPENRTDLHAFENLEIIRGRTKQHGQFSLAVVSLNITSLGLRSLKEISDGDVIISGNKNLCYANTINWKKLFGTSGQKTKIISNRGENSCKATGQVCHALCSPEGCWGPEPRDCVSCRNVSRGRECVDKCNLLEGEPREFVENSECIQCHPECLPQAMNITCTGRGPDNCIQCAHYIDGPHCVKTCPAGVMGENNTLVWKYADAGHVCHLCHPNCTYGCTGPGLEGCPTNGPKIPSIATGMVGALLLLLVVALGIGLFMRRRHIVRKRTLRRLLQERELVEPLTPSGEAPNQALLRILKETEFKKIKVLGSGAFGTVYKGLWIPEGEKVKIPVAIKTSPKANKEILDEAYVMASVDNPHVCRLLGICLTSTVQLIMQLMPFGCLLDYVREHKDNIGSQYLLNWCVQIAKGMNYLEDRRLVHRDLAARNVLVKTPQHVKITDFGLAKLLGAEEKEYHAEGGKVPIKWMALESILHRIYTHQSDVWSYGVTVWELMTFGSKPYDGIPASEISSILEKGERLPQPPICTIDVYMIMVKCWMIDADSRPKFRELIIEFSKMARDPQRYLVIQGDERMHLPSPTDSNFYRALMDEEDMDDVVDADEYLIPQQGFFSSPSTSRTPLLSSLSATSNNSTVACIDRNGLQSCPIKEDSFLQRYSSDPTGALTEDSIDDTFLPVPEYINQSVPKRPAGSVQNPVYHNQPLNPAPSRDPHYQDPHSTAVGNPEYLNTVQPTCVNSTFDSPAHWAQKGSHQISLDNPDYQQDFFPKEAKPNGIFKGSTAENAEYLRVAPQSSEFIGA
Ba/F3 EGFR Wild-type, sequence (P00533 whole entry, change not shown): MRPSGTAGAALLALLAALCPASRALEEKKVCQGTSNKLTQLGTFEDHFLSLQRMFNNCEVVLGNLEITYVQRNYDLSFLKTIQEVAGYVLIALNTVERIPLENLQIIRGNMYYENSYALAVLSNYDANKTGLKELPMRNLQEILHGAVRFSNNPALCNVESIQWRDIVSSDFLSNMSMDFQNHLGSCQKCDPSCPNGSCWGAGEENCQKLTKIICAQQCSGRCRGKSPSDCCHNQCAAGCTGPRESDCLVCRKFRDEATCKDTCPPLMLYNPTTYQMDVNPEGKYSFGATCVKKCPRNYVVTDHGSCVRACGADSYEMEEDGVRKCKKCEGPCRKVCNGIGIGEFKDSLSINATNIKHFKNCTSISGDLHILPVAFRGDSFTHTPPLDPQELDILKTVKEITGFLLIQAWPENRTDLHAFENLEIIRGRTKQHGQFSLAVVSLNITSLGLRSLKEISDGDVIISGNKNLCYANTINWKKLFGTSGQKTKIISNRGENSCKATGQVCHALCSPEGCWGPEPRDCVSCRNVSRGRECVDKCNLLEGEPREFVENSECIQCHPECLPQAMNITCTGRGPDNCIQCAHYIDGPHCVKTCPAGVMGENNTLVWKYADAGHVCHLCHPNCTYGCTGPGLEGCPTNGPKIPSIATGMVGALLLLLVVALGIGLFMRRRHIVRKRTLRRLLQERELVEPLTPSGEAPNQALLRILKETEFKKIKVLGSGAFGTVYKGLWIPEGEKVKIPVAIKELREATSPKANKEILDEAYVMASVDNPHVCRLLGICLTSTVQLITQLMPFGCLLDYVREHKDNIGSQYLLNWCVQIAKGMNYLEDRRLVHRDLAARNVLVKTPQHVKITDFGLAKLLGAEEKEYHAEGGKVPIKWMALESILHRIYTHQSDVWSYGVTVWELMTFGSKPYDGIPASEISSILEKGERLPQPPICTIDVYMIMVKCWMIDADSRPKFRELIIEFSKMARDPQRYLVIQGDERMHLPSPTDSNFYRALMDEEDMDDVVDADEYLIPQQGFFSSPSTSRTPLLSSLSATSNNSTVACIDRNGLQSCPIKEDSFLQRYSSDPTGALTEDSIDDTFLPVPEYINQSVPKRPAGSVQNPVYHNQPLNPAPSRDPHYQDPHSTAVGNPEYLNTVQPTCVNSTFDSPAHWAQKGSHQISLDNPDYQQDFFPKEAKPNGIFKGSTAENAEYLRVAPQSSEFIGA
Ba/F3 EGFR L858R/T790M/C797S mutants, sequence (P00533 whole entry T790M/C797S/L858R): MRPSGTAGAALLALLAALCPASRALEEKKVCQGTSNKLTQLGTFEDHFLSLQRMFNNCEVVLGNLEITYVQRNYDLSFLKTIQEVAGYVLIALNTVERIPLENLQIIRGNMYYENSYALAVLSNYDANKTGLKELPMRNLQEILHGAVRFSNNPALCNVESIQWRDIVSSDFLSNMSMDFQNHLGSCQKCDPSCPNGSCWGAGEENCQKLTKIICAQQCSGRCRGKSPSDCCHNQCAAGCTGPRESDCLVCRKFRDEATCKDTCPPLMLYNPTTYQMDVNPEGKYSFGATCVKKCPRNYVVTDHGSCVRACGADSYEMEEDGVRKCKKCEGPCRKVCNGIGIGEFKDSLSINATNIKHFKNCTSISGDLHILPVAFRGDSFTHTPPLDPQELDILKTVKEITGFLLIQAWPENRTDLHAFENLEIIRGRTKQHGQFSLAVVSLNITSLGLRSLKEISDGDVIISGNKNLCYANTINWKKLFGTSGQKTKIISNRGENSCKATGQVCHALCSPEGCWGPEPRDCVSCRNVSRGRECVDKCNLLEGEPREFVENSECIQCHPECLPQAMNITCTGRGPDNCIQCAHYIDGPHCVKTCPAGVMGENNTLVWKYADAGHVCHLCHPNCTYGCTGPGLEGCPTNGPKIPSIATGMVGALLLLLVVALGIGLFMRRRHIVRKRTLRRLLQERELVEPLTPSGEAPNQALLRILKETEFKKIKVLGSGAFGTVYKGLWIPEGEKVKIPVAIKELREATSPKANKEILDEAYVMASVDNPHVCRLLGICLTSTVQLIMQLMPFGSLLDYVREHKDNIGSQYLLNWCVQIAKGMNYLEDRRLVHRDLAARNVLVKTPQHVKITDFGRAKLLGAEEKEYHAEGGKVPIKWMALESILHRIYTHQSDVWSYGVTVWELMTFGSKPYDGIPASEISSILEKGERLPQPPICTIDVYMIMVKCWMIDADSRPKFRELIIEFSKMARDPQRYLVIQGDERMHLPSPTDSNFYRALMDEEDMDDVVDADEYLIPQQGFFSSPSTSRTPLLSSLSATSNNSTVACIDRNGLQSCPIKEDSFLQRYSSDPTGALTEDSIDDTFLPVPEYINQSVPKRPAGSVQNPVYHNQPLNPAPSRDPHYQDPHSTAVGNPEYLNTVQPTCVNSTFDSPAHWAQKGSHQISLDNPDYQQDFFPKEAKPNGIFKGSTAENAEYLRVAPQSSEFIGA
Ba/F3 EGFR Del19/T790M/C797S mutants, sequence (P00533 with tags, fused parts or gaps DEL746-750/T790M/C797S, form open): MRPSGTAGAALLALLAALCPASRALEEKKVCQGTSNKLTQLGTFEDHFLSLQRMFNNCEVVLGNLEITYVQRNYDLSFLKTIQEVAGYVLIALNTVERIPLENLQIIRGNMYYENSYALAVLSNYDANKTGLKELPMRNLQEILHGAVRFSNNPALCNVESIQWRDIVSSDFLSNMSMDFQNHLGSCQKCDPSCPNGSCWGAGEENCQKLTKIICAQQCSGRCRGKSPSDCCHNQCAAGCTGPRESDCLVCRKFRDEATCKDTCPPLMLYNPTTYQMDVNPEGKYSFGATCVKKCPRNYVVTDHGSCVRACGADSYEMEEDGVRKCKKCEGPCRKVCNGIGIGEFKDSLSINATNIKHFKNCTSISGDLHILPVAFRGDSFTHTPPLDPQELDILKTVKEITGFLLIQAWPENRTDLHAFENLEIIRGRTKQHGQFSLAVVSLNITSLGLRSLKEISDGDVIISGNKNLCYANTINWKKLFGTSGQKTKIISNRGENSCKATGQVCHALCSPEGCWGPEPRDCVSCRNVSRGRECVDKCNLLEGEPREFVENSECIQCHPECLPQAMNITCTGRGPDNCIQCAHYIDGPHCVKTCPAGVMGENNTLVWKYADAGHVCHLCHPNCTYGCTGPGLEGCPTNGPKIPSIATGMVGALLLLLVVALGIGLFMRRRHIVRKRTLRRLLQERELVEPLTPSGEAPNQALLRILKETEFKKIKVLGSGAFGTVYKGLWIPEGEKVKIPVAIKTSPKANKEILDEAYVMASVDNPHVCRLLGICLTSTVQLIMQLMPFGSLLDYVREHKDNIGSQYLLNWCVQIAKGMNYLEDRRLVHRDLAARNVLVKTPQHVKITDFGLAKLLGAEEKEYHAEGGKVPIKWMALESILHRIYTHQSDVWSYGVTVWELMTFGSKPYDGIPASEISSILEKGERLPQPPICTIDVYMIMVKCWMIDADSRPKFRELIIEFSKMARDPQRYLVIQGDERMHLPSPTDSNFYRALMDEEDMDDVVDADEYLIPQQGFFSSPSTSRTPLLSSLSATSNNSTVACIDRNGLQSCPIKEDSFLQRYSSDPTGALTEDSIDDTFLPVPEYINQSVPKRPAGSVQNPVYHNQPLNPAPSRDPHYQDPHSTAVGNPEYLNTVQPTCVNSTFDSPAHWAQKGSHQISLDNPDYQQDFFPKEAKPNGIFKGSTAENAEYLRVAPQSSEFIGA

Row | Compound | GI50 [1] | GI50 [2] | GI50 [3] | GI50 [4] | GI50 [5] | GI50 [6]
1 | CCc1cc(Nc2ncc(Br)c(Nc3ccc4nccnc4c3NS(C)(=O)=O)n2)c(OC)cc1N1CCC(N2CCOCC2)CC1 [Example A28, N-(6-((5-bromo-2-((5-ethyl-2-methoxy-4-(4-morpholinopiperidin-1-yl)phenyl)amino)pyrimidin-4-yl)amino)quinoxalin-5-yl)methanesulfonamide] | 17 nM | 10 nM | 51 nM | 36 nM | 101 nM | 318 nM
2 | CCc1cc(Nc2ncc(Br)c(Nc3ccc4nccnc4c3N(C)S(C)(=O)=O)n2)c(OC)cc1N1CCN(C2CCN(C)CC2)CC1 [Example A49, N-(6-((5-bromo-2-((5-ethyl-2-methoxy-4-(4-(1-methylpiperidin-4-yl)piperazin-1-yl)phenyl)amino)pyrimidin-4-yl)amino)quinoxalin-5-yl)-N-methylmethane sulfonamide] | 64 nM | 4 nM | 4 nM | 10 nM | 15 nM | 243 nM
3 | CCCc1cc(Nc2ncc(F)c(Nc3ccc4nccnc4c3NS(C)(=O)=O)n2)c(OC)cc1N1CCC(N2CCN(C)CC2)CC1 [Example A32, N-(6-((5-fluoro-2-((2-methoxy-4-(4-(4-methylpiperazin-1-yl)piperidin-1-yl)-5-propylphenyl)amino)pyrimidin-4-yl)amino)quinoxalin-5-yl)methanesulfonamide] | 229 nM | 27 nM | 91 nM | 11 nM | 51 nM | 603 nM
4 | COc1cc(N2CCC(N(C)C)CC2)c(C)cc1Nc1ncc(Br)c(Nc2ccc3nccnc3c2N(C)S(C)(=O)=O)n1 [Example B7, N-(6-((5-bromo-2-((4-(4-(dimethylamino)piperidin-1-yl)-2-methoxy-5-methylphenyl)amino)pyrimidin-4-yl)amino)quinoxalin-5-yl)-N-methylmethanesulfonamide] | 33 nM | 21 nM | 8 nM | 34 nM | 98 nM | 595 nM
5 | CCc1cc(Nc2ncc(Cl)c(Nc3ccc4nccnc4c3N(C)S(C)(=O)=O)n2)c(OC)cc1N1CCC(N2CCOCC2)CC1 [Example A40, N-(6-((5-chloro-2-((5-ethyl-2-methoxy-4-(4-morpholinopiperidin-1-yl)phenyl)amino)pyrimidin-4-yl)amino)quinoxalin-5-yl)-N-methylmethanesulfonamide] | 94 nM | 10 nM | 12 nM | 10 nM | 50 nM | 845 nM
6 | CCCc1cc(Nc2ncc(Cl)c(Nc3ccc4nccnc4c3NS(C)(=O)=O)n2)c(OC)cc1N1CCC(N2CCN(C)CC2)CC1 [Example A6, N-(6-((5-chloro-2-((2-methoxy-4-(4-(4-methylpiperazin-1-yl)piperidin-1-yl)-5-propylphenyl)amino)pyrimidin-4-yl)amino)quinoxalin-5-yl)methanesulfonamide] | 12 nM | 5 nM | 4 nM | 14 nM | 29 nM | 498 nM
7 | CCc1cc(Nc2ncc(Br)c(Nc3ccc4nccnc4c3NS(C)(=O)=O)n2)c(OC)cc1N1CCC(N2CC3CCC2CN3C)CC1 (stereo not drawn) [Example A46, N-(6-((5-bromo-2-((5-ethyl-2-methoxy-4-(4-(5-methyl-2,5-diazabicyclo[2.2.2]octan-2-yl)piperidin-1-yl)phenyl)amino)pyrimidin-4-yl)amino)quinoxalin-5-yl)methanesulfonamide] | 43 nM | 7 nM | 8 nM | 12 nM | 113 nM | 739 nM
8 | COc1cc(N2CCC(N3CCN(C)CC3)CC2)c(C)cc1Nc1ncc(Br)c(Nc2ccc3nccnc3c2NS(C)(=O)=O)n1 [Example A4, N-(6-((5-bromo-2-((2-methoxy-5-methyl-4-(4-(4-methylpiperazin-1-yl)piperidin-1-yl)phenyl)amino)pyrimidin-4-yl)amino)quinoxalin-5-yl)methanesulfonamide] | 6 nM | 3 nM | 1 nM | 12 nM | 34 nM | 249 nM
9 | COc1cc(C2CCNCC2)c(C)cc1Nc1ncc(Br)c(Nc2ccc3nccnc3c2NS(C)(=O)=O)n1 [Example B11, N-(6-((5-bromo-2-((2-methoxy-5-methyl-4-(piperidin-4-yl)phenyl)amino)pyrimidin-4-yl)amino)quinoxalin-5-yl)methanesulfonamide] | 264 nM | 443 nM | 725 nM | 583 nM | 781 nM | 1270 nM
10 | COc1cc(N2CCNCC2)ccc1Nc1ncc(Cl)c(Nc2cccc(OC)c2NS(C)(=O)=O)n1 [Example C6, N-(2-((5-chloro-2-((2-methoxy-4-(piperazin-1-yl)phenyl)amino)pyrimidin-4-yl)amino)-6-methoxyphenyl)methanesulfonamide] | 596 nM | 268 nM | 222 nM | 106 nM | 305 nM | 626 nM
11 | COc1cc(N2CCC(N3CCN(CC(F)F)CC3)CC2)ccc1Nc1ncc(Cl)c(Nc2ccc3nccnc3c2NS(C)(=O)=O)n1 [Example A37, N-(6-((5-chloro-2-((4-(4-(4-(2,2-difluoroethyl)piperazin-1-yl)piperidin-1-yl)-2-methoxyphenyl)amino)pyrimidin-4-yl)amino)quinoxalin-5-yl)methane sulfonamide] | 640 nM | 174 nM | 205 nM | 126 nM | 451 nM | 734 nM
12 | COc1cc(N2CCC(N3CCCC3)CC2)c(C)cc1Nc1ncc(Cl)c(Nc2ccc3c(c2NS(C)(=O)=O)OCCO3)n1 [Example C27, N-(6-((5-chloro-2-((2-methoxy-5-methyl-4-(4-(pyrrolidin-1-yl)piperidin-1-yl)phenyl)amino)pyrimidin-4-yl)amino)-2,3-dihydrobenzo[b][1,4]dioxin-5-yl)methanesulfonamide] | 48 nM | 16 nM | 15 nM | 10 nM | 43 nM | 565 nM
13 | CCc1cc(Nc2ncc(Br)c(Nc3cccc(OC)c3N(C)S(C)(=O)=O)n2)c(OC)cc1N1CCC(N2CCN(C)CC2)CC1 [Example C7, N-(2-((5-bromo-2-((5-ethyl-2-methoxy-4-(4-(4-methylpiperazin-1-yl)piperidin-1-yl)phenyl)amino)pyrimidin-4-yl)amino)-6-methoxyphenyl)-N-methylmethane sulfonamide] | 24 nM | 6 nM | 10 nM | 10 nM | 52 nM | 534 nM
14 | COc1cc(N2CCC(N3CCCC3)CC2)c(C)cc1Nc1ncc(Cl)c(Nc2cccc(OC)c2NS(C)(=O)=O)n1 [Example C10, N-(2-((5-chloro-2-((2-methoxy-5-methyl-4-(4-(pyrrolidin-1-yl)piperidin-1-yl)phenyl)amino)pyrimidin-4-yl)amino)-6-methoxyphenyl)methanesulfonamide] | 45 nM | 6 nM | 9 nM | 9 nM | 61 nM | 404 nM
